US7763615B2, “Ecteinascidin analogs for use as antitumour agents” (priority 2001, dated 2010)
Values after ≈ are worked out from the molar mass of the structure shown. Like-named read-outs stand apart in the source and are kept apart here.

What was measured:
[1] = system: H9c2 (2-1), normal rat cardiac muscle cells; details: 24 h
Procedure: In order to assess the cytotoxicity of the drugs to normal cells, we used 96 well plates plated at a density of 5000 cells per well (except for the FDC-P1 which were plated at 12,000 cells per well) with normal cell lines (ATCC, Table 1) maintained as per the directions of the ATCC: AML-12, normal mouse liver cells; NRK-52E, normal rat kidney cells; L8, normal rat skeletal muscle cells; FDC-P1, normal mouse myelogeous stem cells; and H9c2 (2-1), normal rat cardiac muscle cells. The cells in each plate were permitted to settle overnight before adding the test drug.
To each well (100 μl medium) 10 μl of drug in media was added at varying concentrations (1×10-10-0.01 mg/ml final concentration) and further incubated overnight at 37° C. with 5% CO2. After 24 h the following assays were performed. All experiments were repeated at least 3 times and were assayed in duplicate.
MTS assay (CellTiter 96 aqueous) was performed according to the manufacturer's (Promega) directions (for all cell types). Cell viability (mitochondrial activity) is determined via enzymatic conversion of the formazan substrate.

[2] = system: L8, normal rat skeletal muscle cells; details: 24 h
(HEPG2) = details: human, 24 h, 30 μM
HT29 = assay: cells; type: cell-based
Summary of the method: (§1)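 Absorbance at 490 nm of sulphorhodamine B bound by TCA-fixed cells gives the growth readout after 48 h continuous exposure to test samples (10 to 10^−8 μg/ml). Cells were seeded at 5×10^3 per well in RPMI 1640/10% FBS and allowed 18 h to attach first.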

SW-620 = assay: cells; type: cell-based; details: Homo sapiens
Summary of the method: as §1

A498 = assay: cells; type: cell-based; details: Homo sapiens
Summary of the method: as §1

MB231 = assay: cells; type: cell-based; details: Homo sapiens
Summary of the method: as §1

MEL-28 = assay: cells; type: cell-based
Summary of the method: as §1

A549 = assay: cells; type: cell-based; details: for GI50: read-out: GI50
Summary of the method: as §1

MCF = assay: cells; type: cell-based; details: Homo sapiens
Summary of the method: as §1

DU145 = assay: cells; type: cell-based
Summary of the method: as §1

[3] = system: AML-12, normal mouse liver cells; details: 24 h
[4] = system: NRK-52E, normal rat kidney cells; details: 24 h
[5] = system: FDC-P1, normal mouse myelogeous stem cells; details: 24 h
physchem [6] = details: pH 7.4, log D n-Octanol-Dulbecco's PBS pH 7.4
[7] = s9, 60 min, 1 μM
physchem [8] = details: pH 7.4, aqueous buffer, Solubility Dulbecco's PBS pH 7.4
CYP2D6 = CYP2D6 (Homo sapiens, UniProt P10635); assay: in vitro; details: CYP2D6 (% inhibition)
CYP3A4 [9] = biological target: T1, CYP3A4 (Homo sapiens, UniProt P08684); assay: in vitro; details: CYP3A4 (% inhibition)
in vitro = details: human, Caco-2
Source text: The intestinal epithelium permeability is a critical characteristic that determines the rate and extent of human absorption and ultimately the bioavailability of a drug candidate. Caco-2 permeability assay allows a rapid assessment of membrane permeability and thus helps to rank-order compounds in terms of their absorption potential.
The Caco-2 cell line is a human colon adenocarcinoma cell line that differentiates in culture and resembles the epithelial lining of the human small intestine.
The apparent permeability coefficients (Papp) was determined in the apical-to-basolateral (A-to-B) direction across the cell monolayers (TC-7 sub-clone of the Caco-2) cultured on polycarbonate membrane filters. Compounds were tested at 50 μM with at a final DMSO concentration of 1%. Samples were analyzed by HPLC-MS or HPLC-MS/MS.
The test compound was added to the apical side and the Papp was determined based on the rate of appearance of the test compound in the basolateral side after 2 h-incubation. Two reference compounds, propranolol (highly permeable) and ranitidine (poorly permeable), are tested in each assay as controls.

LOVO = assay: cells; type: cell-based; details: LOVO
Summary of the method: as §1

IGROV = assay: cells; type: cell-based
Summary of the method: as §1

IGROV-ET = assay: cells; type: cell-based; details: IGROV-ET
Summary of the method: as §1

LNCAP = assay: cells; type: cell-based; details: LNCAP
Summary of the method: as §1

SK-BR3 = assay: cells; type: cell-based; details: SK-BR3
Summary of the method: as §1

K562 = assay: cells; type: cell-based
Summary of the method: as §1

LOVO-DOX = assay: cells; type: cell-based
Summary of the method: as §1

PANC-1 = assay: cells; type: cell-based; details: PANC-1
Summary of the method: as §1

CYP3A4 [10] = biological target: T1, CYP3A4; details: 30 min, 10 µM
SK-OV3 = assay: Inhibition of cells growth by colorimetric assay (SRB), SK-OV3; type: cell-based; details: SK-OV3
Summary of the method: as §1

H-MEC-1 = assay: Inhibition of cells growth by colorimetric assay (SRB), H-MEC-1; type: cell-based
Summary of the method: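 Readout: SRB OD490, triplicate wells. Setup: 5×10^3 cells/well, RPMI 1640 + 10% FBS, 37° C, 5% CO2; 18 h pre-attachment; 48 h sample exposure, 10 to 10^−8 μg/ml. Outputs GI, TGI (cytostatic), LC (cytotoxic).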

[11] = Homo sapiens, HT-29, 48 h, HT29, 48 hours exposure, SRB
[12] = Homo sapiens, SK-MEL-28, 48 h, MEL-28, 48 hours exposure, SRB
[13] = Homo sapiens, DU-145, 48 h, DU145, 48 hours exposure, SRB

T1 sequence (P08684 whole entry): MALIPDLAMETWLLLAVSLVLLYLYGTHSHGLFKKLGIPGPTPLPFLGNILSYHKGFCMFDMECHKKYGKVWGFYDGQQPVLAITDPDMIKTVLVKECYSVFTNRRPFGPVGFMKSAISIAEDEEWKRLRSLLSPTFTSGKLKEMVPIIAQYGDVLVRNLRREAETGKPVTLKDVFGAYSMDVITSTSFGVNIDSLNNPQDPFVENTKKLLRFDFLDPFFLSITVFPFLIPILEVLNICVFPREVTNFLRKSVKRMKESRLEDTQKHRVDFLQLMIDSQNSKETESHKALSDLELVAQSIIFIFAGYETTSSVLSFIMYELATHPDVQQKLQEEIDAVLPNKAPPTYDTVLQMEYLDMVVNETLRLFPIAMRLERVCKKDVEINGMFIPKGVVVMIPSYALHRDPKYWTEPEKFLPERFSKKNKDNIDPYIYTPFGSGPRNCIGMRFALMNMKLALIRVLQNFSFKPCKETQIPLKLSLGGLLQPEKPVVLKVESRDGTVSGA
Chain of CYP2D6 (P10635 whole entry): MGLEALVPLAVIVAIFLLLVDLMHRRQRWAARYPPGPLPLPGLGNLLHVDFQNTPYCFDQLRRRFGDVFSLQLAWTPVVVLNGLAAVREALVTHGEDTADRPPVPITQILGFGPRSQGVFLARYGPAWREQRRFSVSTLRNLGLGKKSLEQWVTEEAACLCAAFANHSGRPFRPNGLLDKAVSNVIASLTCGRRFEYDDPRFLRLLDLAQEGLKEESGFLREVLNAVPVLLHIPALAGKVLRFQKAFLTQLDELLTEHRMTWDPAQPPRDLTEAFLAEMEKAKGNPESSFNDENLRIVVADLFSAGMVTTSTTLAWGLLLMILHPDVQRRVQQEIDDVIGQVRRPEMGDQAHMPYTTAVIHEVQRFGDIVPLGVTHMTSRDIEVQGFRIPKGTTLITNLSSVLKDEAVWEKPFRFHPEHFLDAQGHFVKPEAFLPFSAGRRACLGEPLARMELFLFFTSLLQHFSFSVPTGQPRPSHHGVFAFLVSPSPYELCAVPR

Compound: COc1ccc2c3c([nH]c2c1)[C@@]1(CS[C@@H]2c4c(OC(C)=O)c(C)c5c(c4[C@H](COCC1=O)N1C2[C@H]2c4c(cc(C)c(OC)c4O)C[C@@H]([C@@H]1O)N2C)OCO5)NCC3 (stereo partly drawn) [Compound 34]
- Heart [1]: 4.96E−07
- Skeletal [2]: 1.48E−08
- Cell Viability (% inhibition) ((HEPG2)): 45 % inhibition
- GI50 (HT29; [11]): 7.64 nM
- IC (TGI) (HT29; [11]): 2.54 nM
- CC50 (HT29; Homo sapiens, HT-29, 48 h, read-out: LC50, HT29, 48 hours exposure, SRB): 11.5 nM
- GI50 (SW-620; SW-620, 48 h): 10.2 nM
- CC50 (SW-620; SW-620, 48 h, read-out: LC50): 102 nM
- IC (TGI) (SW-620; SW-620, 48 hours exposure, SRB): 38.2 nM
- CC50 (A498; A498, 48 h, read-out: LC50): 63.7 nM
- GI50 (A498; A498, 48 hours exposure, SRB): 3.82 nM
- IC (TGI) (A498; A498, 48 hours exposure, SRB): 12.7 nM
- CC50 (MB231; 48 h, read-out: LC50): 127 nM
- IC (TGI) (MB231; 48 h, read-out: TGI): 10.2 nM
- GI50 (MB231; MB231, 48 hours exposure, SRB): 3.82 nM
- GI50 (MEL-28; [12]): 3.82 nM
- IC (TGI) (MEL-28; [12]): 12.7 nM
- CC50 (MEL-28; Homo sapiens, SK-MEL-28, 48 h, read-out: LC50, MEL-28, 48 hours exposure, SRB): 63.7 nM
- GI50 (A549; Homo sapiens, A549, 48 h, A549, 48 hours exposure, SRB): 5.1 nM
- IC (TGI) (A549; Homo sapiens, A549, 48 h, A549, 48 hours exposure, SRB, read-out: TGI): 25.5 nM
- CC50 (A549; Homo sapiens, A549, 48 h, read-out: LC50, A549, 48 hours exposure, SRB): 89.2 nM
- CC50 (MCF; 48 h, read-out: LC50): 127 nM
- GI50 (MCF; MCF, 48 hours exposure, SRB): 5.1 nM
- IC (TGI) (MCF; MCF, 48 hours exposure, SRB, read-out: TGI): 25.5 nM
- GI50 (DU145; [13]): 2.55 nM
- IC (TGI) (DU145; [13]): 3.82 nM
- CC50 (DU145; Homo sapiens, DU-145, 48 h, read-out: LC50, DU145, 48 hours exposure, SRB): 10.2 nM
- Liver [3]: 2.55E−06
- Kidney [4]: 2.74E−07
- Myelo [5]: 1.15E−05
- logD at 60 min (physchem [6]): > 5
- Human Liver S9 Metabolic Stability (% remaining) [7]: 24 % remaining
- solubility (physchem [8]): 17.6 µM (≈ 14.1 µg/mL)
- inhibition at 450 min, 10 µM (CYP2D6): 28%
- inhibition at 30 min, 10 µM (CYP3A4 [9]): 80%
- Papp A→B at 2 h, 50 μM (in vitro): 5 ×10⁻⁶ cm/s

Compound: COc1c(C)cc2c(c1O)[C@@H]1C3[C@@H]4SC[C@]5(NC(C)Cc6c5[nH]c5ccccc65)C(=O)COC[C@@H](c5c6c(c(C)c(OC(C)=O)c54)OCO6)N3[C@@H](O)[C@H](C2)N1C (stereo partly drawn) [Compound 43]
- Heart [1]: 9.42E−08
- Skeletal [2]: 1.60E−07
- GI50 (LOVO): 3.5 nM
- TGI (LOVO): 8.32E−09
- CC50 (LOVO; read-out: LC50): 38.9 nM
- TGI (HT29; HT29): 1.04E−07
- GI50 (HT29; Homo sapiens, HT-29, HT29): 46.4 nM
- CC50 (HT29; Homo sapiens, HT-29, read-out: LC50, HT29): 13000 nM
- TGI (IGROV): 5.20E−09
- GI50 (IGROV; Homo sapiens): 2.73 nM
- CC50 (IGROV; read-out: LC50): 9.88 nM
- GI50 (IGROV-ET): 9.1 nM
- TGI (IGROV-ET): 2.35E−08
- CC50 (IGROV-ET; read-out: LC50): 13000 nM
- GI50 (MEL-28; MEL-28): 308 nM
- TGI (MEL-28; MEL-28): 5.81E−07
- CC50 (MEL-28; read-out: LC50, MEL-28): 1090 nM
- TGI (A549; A549): 1.08E−08
- GI50 (A549; A549): 5.12 nM
- CC50 (A549; read-out: LC50, A549): 32.8 nM
- GI50 (LNCAP): 2.02 nM
- TGI (LNCAP): 3.76E−09
- CC50 (LNCAP; read-out: LC50): 7 nM
- GI50 (SK-BR3): 3.77 nM
- TGI (SK-BR3): 8.65E−09
- CC50 (SK-BR3; read-out: LC50): 41.1 nM
- GI50 (K562; Homo sapiens, K562, K562): 2.51 nM
- TGI (K562; K562): 4.88E−09
- CC50 (K562; read-out: LC50, K562): 9.49 nM
- CC50 (LOVO-DOX; Homo sapiens, read-out: LC50, LOVO-DOX): 13000 nM
- GI50 (LOVO-DOX; LOVO-DOX): 39.8 nM
- TGI (LOVO-DOX; LOVO-DOX): 1.06E−07
- TGI (DU145; DU145): 9.04E−09
- GI50 (DU145; Homo sapiens, DU-145, DU145): 4.76 nM
- CC50 (DU145; read-out: LC50, DU145): 13 nM
- GI50 (PANC-1): 5.28 nM
- TGI (PANC-1): 1.15E−08
- CC50 (PANC-1; read-out: LC50): 39 nM
- Liver [3]: 7.57E−08
- Kidney [4]: 4.38E−08
- Myelo [5]: 6.23E−08
- logD at 60 min (physchem [6]): > 4.5
- CYP3A4 (% inhibition) (CYP3A4 [10]): 15 % inhibition
- GI50 (SK-OV3): 3.39 nM
- TGI (SK-OV3): 7.17E−09
- CC50 (SK-OV3; read-out: LC50): 13 nM
- Solubility Dulbecco's PBS pH 7.4: 5.85 μM
- Human Liver S9 Metabolic Stability (% remaining) [7]: 3 % remaining
- GI50 (H-MEC-1; H-MEC-1): 11.8 nM
- TGI (H-MEC-1; H-MEC-1): 1.77E−07
- CC50 (H-MEC-1; Homo sapiens, HMEC-1, read-out: LC50, H-MEC-1): 13000 nM
